Assay results from patent US12251385B2, “Covalent inhibitors of menin-MLL interaction for diabetes mellitus” (BIOMEA FUSION, INC., priority 2021, dated 2025).
“Also recorded” adds a separate entry of the source.

Legend:
[1] = test system: Zucker Diabetic Fatty (ZDF) Rat; assay: ZDF rat model, 16 days dosing and drug washout to Day 29 (Example 105); format: in vivo; settings: ZDF rats
Method: (§1) ZDF rats were treated daily with Compound 10, vehicle, or pioglitazone for sixteen days and monitored for an additional two weeks post-treatment until Day 29. STZ rat models were induced through pre-treatment of animals on a high-fat diet with low doses of streptozotocin at Day −14 and Day −7 prior to starting treatment at Day Zero until Day 16. ZDF and STZ rats were monitored for fasting blood glucose levels, oral glucose tolerance test (OGTT), insulin and C-peptide levels, HOMA-IR (Homeostatic Model Assessment of Insulin Resistance), blood lipemic levels, and body weight according to the schematic for each model below. ZDF rats were analyzed for indicated readouts for fifteen days post-treatment for OGTT at Day 29, and serum insulin and C-peptide at Day 31.
ZDF Rat Model—three treatment groups 1. Vehicle; 2. Compound 10 at 175 mg/kg; and 3. Pioglitazone at 30 mg/kg; n=10 per group. Daily dosing zero to sixteen days QD 4 drug wash out at sixteen to twenty-nine days. Rats were monitored for the following parameters through dosing and wash out phases—body weight, fasting blood sugar, blood insulin, C-peptide, and OGTT.

[2] = test system: Zucker diabetic fatty rats (ZDF rats, genotype ZDF-Lepr^fa/Crl); assay: Restoration of glycemic control in diabetic fatty rats, dosing Days 1-16 (Example 102); format: in vivo, rat
Method: The present examples provides the ability of Compound 10 to restore glycemic control to diabetic Zucker diabetic fatty rats (ZDF rats, genotype ZDF-Lepr^fa/Crl; Charles River). Cornicelli et al., 2005, Charles River.
Control and test compounds were stored at 4° C. and prepared weekly as needed. The vehicle for positive control pioglitazone was 0.25% carboxymethylcellulose and 1% Tween® 80 in reverse osmosis deionized water. The vehicle for Compound 10 was 10% DMSO, 10% Solutol HS 15, and 80% (10% hydroxypropyl-β-cyclodextrin in 50 mM citrate buffer at pH 3.0).
(§2) On Day −3, twenty-four ZDF rats (plus eight spare ZDF rats) were measured for body weight and non-fasting glucose. LabDiet 5008 was provided ad libitum throughout the study, except during designated procedures, as was water. In order to minimize the effects of stress on blood glucose and body, all animals including the spares received daily sham doses with phosphate buffered saline pH 7.2 (dose volume 5 mL/kg) via gavage beginning on Study Day −5 to Day −1.
Vehicle, control, and test compound were administered via oral gavage according to the following design on Days 1-16.
On Days −3, 1, 8, and 14 non-fasting blood glucose was measured. […] The animals were weighed, and the animals were placed in clean cages without food. Access to water was provided throughout the procedure. The animals were fasted for five hours and a blood glucose measurement was determined. The animals were dosed via oral gavage with 2 g/kg glucose (10 mL/kg). Blood glucose was determined via tail snip. The second drop of blood from the animal was placed on a hand-held glucometer (Abbott Alpha Trak) at the following times relative to the glucose dose: zero (just prior to glucose dose), 15, 30, 60, 90, and 120 min. Following the final blood glucose measurement, food was returned to the cages. On Day 17, 4-hour fasting glucose was measured. Serum samples were used to measure insulin by ELISA. Analysis was performed in one to three days of each collections. […]

[3] = test system: streptozotocin (STZ) induced type II diabetes in Wistar Han rats; assay: Restoration of glycemic control in streptozotocin-induced rats (Example 103); format: in vivo, rat
Method: The present example provides the ability of Compound 10 to restore glycemic control to streptozotocin (STZ) induced type II diabetes in Wistar Han rats. Fahmy et al., 2017, World J. Pharm. Med. Res. 3(3):37-39.
Control and test compounds were stored at 4° C. and prepared weekly as needed. The vehicle for positive control pioglitazone was 0.25% carboxymethylcellulose and 1% Tween® 80 in reverse osmosis deionized water. The vehicle for Compound 10 was 10% DMSO, 10% Solutol HS 15, and 80% (10% hydroxypropyl-β-cyclodextrin in 50 mM citrate buffer at pH 3.0). The vehicle for streptozotocin pretreatment was 0.1 M sodium citrate pH 4.5.
as §2, with “Wistar Han” for “ZDF”, “Starting on Day −42, D12451 Research Diet” for “LabDiet 5008”, “−1. 20% Glucose in drinking water (200 g/L) was provided ad libitum for 24 hr after streptozotocin injection on Day −14 and Day −7.” for “−1.”
On Days −14 and −7, streptozotocin was administered at 30 mg/kg/day QD intraperitoneally. Starting on Day 1, control and test compound were administered on the following schedule.
On Days −7 to −1 and on Days 1, 8, and 14 non-fasting blood glucose was measured. On Day 15, an oral glucose tolerance test was administered. The animals were weighed and the animals were placed in clean cages without food. Access to water was provided throughout the procedure. The animals were fasted for five hours and a blood glucose measurement was determined. The animals were dosed via oral gavage with 2 g/kg glucose (10 mL/kg). Blood glucose was determined via venipuncture. The second drop of blood from the animal was placed on a hand-held glucometer (Abbott Alpha Trak) at the following times relative to the glucose dose: zero (just prior to glucose dose), 15, 30, 60, 90, and 120 min. Following the final blood glucose measurement, food was returned to the cages. On Day 17, 4-hour fasting glucose was measured. Serum samples were used to measure insulin by ELISA. Analysis was performed in one to three days of each collection. On Day 17, terminal blood collection was obtained at about 8 mL per animal and measured for blood glucose.

[4] = test system: Streptozotocin-induced Rat (STZ); assay: STZ rat model, 16 days dosing (Example 105); format: in vivo; settings: STZ rats
Method: as §1
STZ Rat Model—three treatment groups 1. Vehicle; 2. Compound 10 at 175 mg/kg; and 3. Pioglitazone at 30 mg/kg; n=10 per group. Fourteen-day STZ pretreatment prior to dosing. Daily dosing zero to sixteen days QD. Rats were monitored for the following parameters through dosing—body weight, blood glucose levels, and OGTT.

[5] = test system: Type 2 Diabetes Mellitus (T2DM) Zucker Diabetic Fatty Rat model; assay: Glycemic control in ZDF rats, 28 days treatment plus 28 days post-treatment (Example 104); format: in vivo
Method: Rats were treated daily with Compound 10, liraglutide, or vehicle for twenty-eight days and monitored for an additional twenty-eight days post-treatment.

[6] = test system: Zucker Diabetic Fatty (ZDF) rats; assay: Reduction in HbA1c in ZDF rats, 28 days dosing and washout (Example 106); format: in vivo, rat
Method: Zucker Diabetic Fatty (ZDF) rats were dosed daily with Compound 10, liraglutide, or vehicle for twenty-eight days (n=10 per group) and monitored for an additional twenty-eight days post last dose. Fasting blood glucose, insulin, C-peptide levels, HbA1c, oral glucose tolerance test (OGTT), and body weight were monitored during and post-treatment.
ZDF Rat Model—five treatment groups 1. Vehicle; 2. Compound 10 at 40 mg/kg; 3. Compound 10 at 85 mg/kg; 4. Compound 10 at 170 mg/kg; and 5. Liraglutide at 0.2 mg/kg; n=10 per group. Group 2 dose (40 mg/kg) was increased to 200 mg/kg on Day 17 for rest of the dosing phase. Daily dosing zero to twenty-eight days days QD 4 drug wash out twenty-eight to fifty-six days. Rats were monitored for the following parameters through dosing and wash out phases—body weight, fasting blood sugar, blood insulin, C-peptide, OGTT, and HbA1C.

[7] = 175 mg/kg QD, after two weeks of treatment
[8] = 175 mg/kg QD, after two weeks of treatment, p<0.05
[9] = twenty-eight days of treatment, FIG. 18
[10] = up to the last day of dosing, lasting two weeks post last dose

C=CC(=O)N[C@@H]1CCCN(Cc2ccnc(C(=O)Nc3ccc(-c4cc5c(N6CCOCC6)ncnc5[nH]4)cc3)c2)C1 [Compound 10]
body weight ([1]; 175 mg/kg QD for sixteen days, 175 mg/kg): reduces body weight; also recorded: Significant reductions | blood lipemic levels (cholesterol, triglycerides) ([1]; 175 mg/kg QD for sixteen days, Day 17, p<0.01, 175 mg/kg): significantly reduces; also recorded: Significant reductions | reduction in fasting blood glucose levels [1, 7]: ~50% | reduction in non-fasting blood glucose levels [1, 7]: ~50% | HOMA-IR ([1]; 175 mg/kg QD, after two weeks of treatment, p<0.001): reduced | C-peptide levels [1, 8]: significantly reduced | serum insulin levels [1, 8]: significantly reduced | OGTT AUC reduction, Day 15 ([1]; 175 mg/kg QD, p<0.001): 54% | OGTT AUC reduction, Day 29 ([1]; drug washout, ~two weeks after the last dose, p<0.05): 40% | insulin sensitivity (HOMA-IR) ([1]; sixteen days of treatment, FIG. 16): increases insulin sensitivity | blood glucose, insulin, and C-peptide levels during drug washout ([1]; two weeks after the last dose, FIG. 14): maintains significant impact | insulin, non-fasting state ([2]; 175 mg/kg/day PO QD, Days 1, 8, 14, compared to vehicle and control, FIG. 2A): significant reduction | glucose, fasting state ([2]; 175 mg/kg/day PO QD, compared to vehicle and control, FIG. 1B): significant reduction | insulin, fasting state ([2]; 175 mg/kg/day PO QD, compared to vehicle and control, FIG. 2B): significant reduction | insulin resistance (HOMA), non-fasting state ([2]; 175 mg/kg/day PO QD, compared to vehicle and control, FIG. 3A): significant reduction | insulin resistance (HOMA), fasting state ([2]; 175 mg/kg/day PO QD, compared to vehicle and control, FIG. 3B): significant reduction | glucose, non-fasting state ([2]; Compound 10 175 mg/kg/day PO QD, compared to vehicle and control (pioglitazone), FIG. 1A): significant reduction | oral glucose tolerance test (blood glucose, AUC), Day 29 ([2]; Day 29, after fourteen days of no treatment, FIGS. 5A-5B): significant glucose control | C-peptide two weeks after therapy ([2]; FIG. 7): increasing C-peptide | oral glucose tolerance test (blood glucose, AUC) ([2]; after fifteen days of treatment, 2 g/kg glucose, FIGS. 4A-4B): significant glucose control | 4-hour fasting insulin after two weeks without therapy ([2]; no therapy for two weeks, statistically superior to control, FIG. 6A): increasing insulin | 4-hour fasting glucose after two weeks without therapy ([2]; no therapy for two weeks, statistically superior to control, FIG. 6B): glucose lowering | non-fasting glucose ([3]; STZ-induced Wistar Han rats, 175 mg/kg/day PO QD, compared to vehicle and control, FIG. 8): sharp reduction | insulin, 4-hour fasting state (FIG. 10B) ([3]; STZ-induced rats, Day 17): maintenance or reduction | insulin, non-fasting state (FIG. 10A) ([3]; STZ-induced rats, Days 1, 8 and 14): maintenance or reduction | insulin, non-fasting state (FIG. 9) ([3]; STZ-induced rats, Days 1 and 8): significant reduction | oral glucose tolerance test (blood glucose, AUC) ([3]; STZ-induced rats, after fifteen days of treatment, significant relative to vehicle and control, FIGS. 11A-11B): significant glucose control | body weight [4]: Significant reductions | blood glucose levels (non-fasting) during treatment ([4]; 175 mg/kg QD, measured weekly during treatment, FIG. 15B, 175 mg/kg): strongly reduces; also recorded: reduction of glucose levels | OGTT AUC reduction, Day 15 ([4]; Compound 10 175 mg/kg, pioglitazone 30 mg/kg QD, p<0.05): 41% | blood lipemic levels ([4]; p<0.01): Significant reductions | absolute reduction in HbA1C versus vehicle ([5]; 28 days daily treatment, Day 29, FIG. 12): 3.5% | HbA1C throughout the entire study, including post-treatment ([5]; FIG. 12): remained reduced | oral glucose tolerance test (OGTT) on Day 25 ([5]; both Compound 10 dose groups, in contrast to vehicle and liraglutide): improved glycemic control | tolerability ([5]; daily treatment for twenty-eight days, throughout the study): tolerated Compound 10 well | 4-hour fasting blood glucose ([5]; high-dose arm, during treatment up to Day 29): strong reduction | HbA1c, all doses tested ([6]; 4-week dosing study): significantly reduces; also recorded: significant reductions | fasting blood glucose levels, mid- and high-dose arms ([6]; 85 and 170 mg/kg QD, similar to liraglutide): reduction | HbA1c two weeks after the last dose ([6]; Day 15 post-dosing, FIG. 21): maintains a significant reduction | HbA1c absolute amount lower than the liraglutide group ([6]; Day 29): 1.8% | HbA1c absolute amount lower than the vehicle group ([6]; Day 29): 3.5% | HbA1c reduced from vehicle (relative) ([6]; Day 29): 33% | HbA1c relative reduction printed with the liraglutide comparison ([6]; Day 29, reduced from vehicle): 20% | glycemic control over four weeks of dosing ([6]; FIG. 20): durable glycemic control | fasting blood glucose, Day 29 ([6]; high-dose group, one day after treatment stopped): sustained and significant reduction | oral glucose tolerance test (OGTT) on Day 25, high-dose group ([6]; high-dose-treated group versus liraglutide): improved response versus liraglutide | oral glucose tolerance test (OGTT) on Day 25, all dose groups ([6]; in comparison to the vehicle-treated group): improved glycemic control | body weight over time [6, 9]: progressive increase | fasting blood glucose levels over time [6, 9]: progressive increase | fasting c-peptide levels [6, 10]: elevated | fasting insulin levels [6, 10]: elevated
